Results taken from publication PMC9032380, “Functional exploration of the glycoside hydrolase family GH113” (PLoS ONE, 2022).

Legend:
Assay in all cases: HPAEC-PAD of hydrolysis products
Type in all cases: biochemical
EDP22100 = target: T1, EDP22100 (Faecalibacterium prausnitzii, UniProt A8S9T0); conditions: 100 uM M6, 10 mM phosphate pH 7.5, 25 C; reaction time course
T1 construct: gene FAEPRAM212_01134; predicted GH113 catalytic domain; no signal peptide predicted; N-terminal His6 tag (pHTP1), E. coli BL21(DE3); codon-optimised synthetic gene
T1 sequence (A8S9T0 1-309): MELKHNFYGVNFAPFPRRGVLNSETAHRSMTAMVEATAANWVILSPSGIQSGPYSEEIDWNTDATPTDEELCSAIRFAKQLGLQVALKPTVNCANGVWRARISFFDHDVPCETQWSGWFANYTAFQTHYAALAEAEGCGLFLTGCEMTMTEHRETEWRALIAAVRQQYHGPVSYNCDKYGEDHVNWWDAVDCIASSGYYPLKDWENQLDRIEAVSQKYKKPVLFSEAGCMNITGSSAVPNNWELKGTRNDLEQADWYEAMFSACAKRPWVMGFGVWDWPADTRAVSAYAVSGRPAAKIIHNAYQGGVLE

AGY82530 = target: T2, AGY82530 (Carnobacterium inhibens, UniProt A0ABR7TC15); conditions: […] M6, […] phosphate pH […] C; overnight incubation
T2 construct: gene GLO26_06385; predicted GH113 catalytic domain; no signal peptide predicted; N-terminal His6 tag (pHTP1), E. coli BL21(DE3); codon-optimised synthetic gene
T2 sequence (A0ABR7TC15 1-309): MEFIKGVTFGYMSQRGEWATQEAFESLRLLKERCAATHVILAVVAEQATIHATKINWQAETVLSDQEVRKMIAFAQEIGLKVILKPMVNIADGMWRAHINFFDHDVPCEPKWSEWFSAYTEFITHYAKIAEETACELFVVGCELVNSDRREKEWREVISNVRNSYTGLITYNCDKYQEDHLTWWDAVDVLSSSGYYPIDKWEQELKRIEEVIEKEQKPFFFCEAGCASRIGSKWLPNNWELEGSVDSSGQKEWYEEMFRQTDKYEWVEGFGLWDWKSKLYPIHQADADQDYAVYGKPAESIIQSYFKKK

AIQ46016 = target: T3, AIQ46016 (Paenibacillus sp. FSL R7-0273, UniProt A0A089KA84); conditions: […] M6, […] phosphate pH […] C; overnight incubation
T3 construct: gene R70723_09070; predicted GH113 catalytic domain; no signal peptide predicted; N-terminal His6 tag (pHTP1), E. coli BL21(DE3); codon-optimised synthetic gene
T3 sequence (A0A089KA84 1-318): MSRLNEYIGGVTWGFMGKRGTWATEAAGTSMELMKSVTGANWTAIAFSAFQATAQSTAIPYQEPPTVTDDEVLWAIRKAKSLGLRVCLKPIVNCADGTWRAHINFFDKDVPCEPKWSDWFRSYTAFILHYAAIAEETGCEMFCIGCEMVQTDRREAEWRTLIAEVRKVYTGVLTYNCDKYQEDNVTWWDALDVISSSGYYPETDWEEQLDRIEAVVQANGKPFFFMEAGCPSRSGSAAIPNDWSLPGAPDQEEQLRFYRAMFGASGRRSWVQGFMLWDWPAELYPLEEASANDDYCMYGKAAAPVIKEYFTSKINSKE

OC[C@H]1O[C@@H](O[C@H]2[C@H](O)[C@H](O)[C@H](O[C@H]3[C@H](O)[C@H](O)[C@H](O[C@H]4[C@H](O)[C@H](O)[C@H](O[C@H]5[C@H](O)[C@H](O)[C@H](O[C@H]6[C@H](O)[C@H](O)C(O)O[C@@H]6CO)O[C@@H]5CO)O[C@@H]4CO)O[C@@H]3CO)O[C@@H]2CO)[C@@H](O)[C@@H](O)[C@@H]1O (stereo partly drawn) [M6, mannohexaose]
HPAEC-PAD of hydrolysis products (EDP22100): confirming the release of mannose from mannohexaose (M6) | HPAEC-PAD of hydrolysis products (AGY82530): end-products released by AGY82530, AGF59019, AIQ46016 and AIQ63165 after overnight incubation with M6 | HPAEC-PAD of hydrolysis products (AIQ46016): end-products released by AGY82530, AGF59019, AIQ46016 and AIQ63165 after overnight incubation with M6
